# “Also recorded” adds a separate entry of the source. Like-named read-outs stand apart in the source and are kept apart here.
# Columns and labels:
# advanced solid tumors = experiment: Tumor assessments according to RECIST version 1.0; format: in vivo, human; details: of 38 evaluable; AZD7762 plus gemcitabine
# pChk1ser345 and pH2AX = format: in vivo, human
# Japanese patients = details: in combination with gemcitabine, bradycardia, hypertension, DLT troponin T increase; cited from earlier work
# [1] = system: patients with advanced solid tumors; details: for Serious AE possibly related to AZD7762: one patient
# [2] = Single-dose pharmacokinetics of AZD7762 in plasma and urine
# [3] = AZD7762 6 mg/gemcitabine 750 mg/m^2, 3x/cycle, n=6
# [4] = AZD7762 6 mg/gemcitabine 1,000 mg/m^2, 2x/cycle, n=2
# [5] = AZD7762 6 mg/gemcitabine 1,000 mg/m^2, 3x/cycle, n=1
# [6] = AZD7762 9 mg/gemcitabine 1,000 mg/m^2, n=3
# [7] = AZD7762 14 mg/gemcitabine 1,000 mg/m^2, n=6
# [8] = AZD7762 21 mg/gemcitabine 1,000 mg/m^2, n=3
# [9] = AZD7762 30 mg/gemcitabine 1,000 mg/m^2, n=7
# [10] = AZD7762 32 mg/gemcitabine 1,000 mg/m^2, n=6
# [11] = AZD7762 40 mg/gemcitabine 1,000 mg/m^2, n=8
# [12] = all doses, overall, 11/42 patients
# [13] = cycle 0 (AZD7762 alone), 6/42 patients
# [14] = cycle 1 onwards, AZD7762 6 mg plus gemcitabine 1,000 mg/m^2, 3x/cycle, n=1
smiles,measurement,setting,value
NC(=O)Nc1cc(-c2cccc(F)c2)sc1C(=O)N[C@H]1CCCNC1 [AZD7762],"Best response stable disease for ≥6–<12 weeks, patients",advanced solid tumors,five
same,"Disease progression as best response, patients",advanced solid tumors,20 patients
same,"Stable disease for ≥12 weeks, patients",advanced solid tumors,four
same,Change in staining of pChk1ser345 and pH2AX,"pChk1ser345 and pH2AX; 32 mg cohort, AZD7762 after gemcitabine",small increases in staining
same,H-scores for both biomarkers (out of 12),"pChk1ser345 and pH2AX; hair follicles from skin biopsies, pChk1ser345 and pH2AX",0–3
same,Change in staining of pChk1ser345 and pH2AX,pChk1ser345 and pH2AX; other dose cohorts,no increased staining
same,Dose escalation limit due to cardiac AEs,Japanese patients,did not support dose escalation beyond 21 mg
same,"Blood ALP increased, number of patients (%)",[1]; [3],0 patients (%)
same,"Constipation, number of patients (%)",[1]; [3],2 (33) patients (%)
same,"Decreased appetite, number of patients (%)",[1]; [3],2 (33) patients (%)
same,"Dehydration, number of patients (%)",[1]; [3],2 (33) patients (%)
same,"Diarrhea, number of patients (%)",[1]; [3],0 patients (%)
same,"Neutropenia/leukopenia, number of patients (%)",[1]; [3],0 patients (%)
same,"Thrombocytopenia, number of patients (%)",[1]; [3],2 (33) patients (%)
same,"Vomiting, number of patients (%)",[1]; [3],2 (33) patients (%)
same,"Decreased appetite, number of patients (%)",[1]; [4],0 patients (%)
same,"Diarrhea, number of patients (%)",[1]; [4],0 patients (%)
same,"Headache, number of patients (%)",[1]; [4],0 patients (%)
same,"Nausea, number of patients (%)",[1]; [4],0 patients (%)
same,"Neutropenia/leukopenia, number of patients (%)",[1]; [4],0 patients (%)
same,"Thrombocytopenia, number of patients (%)",[1]; [4],0 patients (%)
same,"ALT/AST increased, number of patients (%)",[1]; [5],0 patients (%)
same,"Blood ALP increased, number of patients (%)",[1]; [5],0 patients (%)
same,"Constipation, number of patients (%)",[1]; [5],0 patients (%)
same,"Decreased appetite, number of patients (%)",[1]; [5],0 patients (%)
same,"Dehydration, number of patients (%)",[1]; [5],0 patients (%)
same,"Headache, number of patients (%)",[1]; [5],0 patients (%)
same,"Thrombocytopenia, number of patients (%)",[1]; [5],0 patients (%)
same,"ALT/AST increased, number of patients (%)",[1]; [6],0 patients (%)
same,"Anemia/Hb decreased, number of patients (%)",[1]; [6],1 (33) patients (%)
same,"Blood ALP increased, number of patients (%)",[1]; [6],0 patients (%)
same,"Constipation, number of patients (%)",[1]; [6],1 (33) patients (%)
same,"Decreased appetite, number of patients (%)",[1]; [6],0 patients (%)
same,"Dehydration, number of patients (%)",[1]; [6],1 (33) patients (%)
same,"Diarrhea, number of patients (%)",[1]; [6],1 (33) patients (%)
same,"Fatigue, number of patients (%)",[1]; [6],1 (33) patients (%)
same,"Nausea, number of patients (%)",[1]; [6],1 (33) patients (%)
same,"Neutropenia/leukopenia, number of patients (%)",[1]; [6],0 patients (%)
same,"Thrombocytopenia, number of patients (%)",[1]; [6],1 (33) patients (%)
same,"Vomiting, number of patients (%)",[1]; [6],0 patients (%)
same,"ALT/AST increased, number of patients (%)",[1]; [7],0 patients (%)
same,"Anemia/Hb decreased, number of patients (%)",[1]; [7],0 patients (%)
same,"Blood ALP increased, number of patients (%)",[1]; [7],0 patients (%)
same,"Constipation, number of patients (%)",[1]; [7],2 (33) patients (%)
same,"Dehydration, number of patients (%)",[1]; [7],0 patients (%)
same,"Headache, number of patients (%)",[1]; [7],0 patients (%)
same,"Neutropenia/leukopenia, number of patients (%)",[1]; [7],2 (33) patients (%)
same,"ALT/AST increased, number of patients (%)",[1]; [8],0 patients (%)
same,"Anemia/Hb decreased, number of patients (%)",[1]; [8],0 patients (%)
same,"Blood ALP increased, number of patients (%)",[1]; [8],0 patients (%)
same,"Constipation, number of patients (%)",[1]; [8],0 patients (%)
same,"Dehydration, number of patients (%)",[1]; [8],1 (33) patients (%)
same,"Diarrhea, number of patients (%)",[1]; [8],0 patients (%)
same,"Headache, number of patients (%)",[1]; [8],0 patients (%)
same,"Nausea, number of patients (%)",[1]; [8],1 (33) patients (%)
same,"Neutropenia/leukopenia, number of patients (%)",[1]; [8],0 patients (%)
same,"Pyrexia, number of patients (%)",[1]; [8],0 patients (%)
same,"Thrombocytopenia, number of patients (%)",[1]; [8],0 patients (%)
same,"Vomiting, number of patients (%)",[1]; [8],1 (33) patients (%)
same,"Constipation, number of patients (%)",[1]; [9],1 (14) patients (%)
same,"Decreased appetite, number of patients (%)",[1]; [9],0 patients (%)
same,"Dehydration, number of patients (%)",[1]; [9],0 patients (%)
same,"Fatigue, number of patients (%)",[1]; [9],0 patients (%)
same,"Headache, number of patients (%)",[1]; [9],0 patients (%)
same,"Nausea, number of patients (%)",[1]; [9],1 (14) patients (%)
same,"Pyrexia, number of patients (%)",[1]; [9],0 patients (%)
same,"Thrombocytopenia, number of patients (%)",[1]; [9],0 patients (%)
same,"ALT/AST increased, number of patients (%)",[1]; [10],0 patients (%)
same,"Blood ALP increased, number of patients (%)",[1]; [10],0 patients (%)
same,"Constipation, number of patients (%)",[1]; [10],0 patients (%)
same,"Decreased appetite, number of patients (%)",[1]; [10],2 (33) patients (%)
same,"Diarrhea, number of patients (%)",[1]; [10],2 (33) patients (%)
same,"Anemia/Hb decreased, number of patients (%)",[1]; [11],2 (25) patients (%)
same,"Decreased appetite, number of patients (%)",[1]; [11],0 patients (%)
same,"Dehydration, number of patients (%)",[1]; [11],0 patients (%)
same,"Fatigue, number of patients (%)",[1]; [11],2 (25) patients (%)
same,"Headache, number of patients (%)",[1]; [11],0 patients (%)
same,"Nausea, number of patients (%)",[1]; [11],2 (25) patients (%)
same,"Pyrexia, number of patients (%)",[1]; [11],2 (25) patients (%)
same,"Thrombocytopenia, number of patients (%)",[1]; [11],2 (25) patients (%)
same,"ALT/AST increase, patients with AE overall",[1]; [12],26%
same,"Nausea, patients with AE overall",[1]; [12],26%
same,"Pyrexia, patients with AE overall",[1]; [12],26%
same,"Anemia/Hb decrease, patients with AE overall","[1]; all doses, overall, 12/42 patients",29%
same,"Neutropenia/leukopenia, patients with AE overall","[1]; all doses, overall, 15/42 patients",36%
same,"Fatigue, patients with AE overall","[1]; all doses, overall, 17/42 patients",41%
same,"ALT/AST increased, number of patients (%)","[1]; all doses, total n=42",11 (26) patients (%)
same,"Dehydration, number of patients (%)","[1]; all doses, total n=42",6 (14) patients (%)
same,"Nausea, number of patients (%)","[1]; all doses, total n=42",11 (26) patients (%)
same,"Pyrexia, number of patients (%)","[1]; all doses, total n=42",11 (26) patients (%)
same,"Nausea, patients with AE","[1]; cycle 0 (AZD7762 alone), 5/42 patients",12%
same,"Fatigue, patients with AE",[1]; [13],14%
same,"Vomiting, patients with AE",[1]; [13],14%
same,"AEs of CTCAE grade ≥3, patients","[1]; cycle 0 (AZD7762 alone), 8/42 patients",19%
same,"Adverse events grade ≥3, patients","[1]; cycle 0, AZD7762 monotherapy 6 mg (6/750 cohort, 3x/cycle, n=6)",2 (33) n (%)
same,"Adverse events grade ≥3, patients","[1]; cycle 0, AZD7762 monotherapy 6 mg (6/1,000 cohort, 2x/cycle, n=2)",0 n (%)
same,"Adverse events grade ≥3, patients","[1]; cycle 0, AZD7762 monotherapy 6 mg (6/1,000 cohort, 3x/cycle, n=1)",0 n (%)
same,"Adverse events grade ≥3, patients","[1]; cycle 0, AZD7762 monotherapy 9 mg, n=3",0 n (%)
same,"Adverse events grade ≥3, patients","[1]; cycle 0, AZD7762 monotherapy 14 mg, n=6",0 n (%)
same,"Adverse events grade ≥3, patients","[1]; cycle 0, AZD7762 monotherapy 21 mg, n=3",0 n (%)
same,"Adverse events grade ≥3, patients","[1]; cycle 0, AZD7762 monotherapy 30 mg, n=7",0 n (%)
same,"Adverse events grade ≥3, patients","[1]; cycle 0, AZD7762 monotherapy 32 mg, n=6",3 (50) n (%)
same,"Grade ≥3 adverse events, term","[1]; cycle 0, AZD7762 monotherapy 32 mg, n=6, n=1 per term unless stated",Hyponatremia Peripheral neuropathy Troponin I increased
same,"Adverse events grade ≥3, patients","[1]; cycle 0, AZD7762 monotherapy 40 mg, n=8",3 (38) n (%)
same,"Grade ≥3 adverse events, term","[1]; cycle 0, AZD7762 monotherapy 40 mg, n=8, n=1 per term unless stated",Device-related infection Myocardial ischemia Hyperglycemia
same,"AEs of CTCAE grade ≥3, patients","[1]; cycle 1 (AZD7762 in combination with gemcitabine), 22/42 patients",52%
same,Non-cardiac dose-limiting toxicity,"[1]; cycle 1, one patient at AZD7762 32 mg with gemcitabine 1,000 mg/m^2",grade 3 nausea/vomiting for 2 days
same,Non-cardiac dose-limiting toxicity,"[1]; cycle 1, one patient at AZD7762 40 mg with gemcitabine 1,000 mg/m^2",grade 4 neutropenia complicated by ≥38.5 °C fever for 2 days
same,"Adverse events grade ≥3, patients","[1]; cycle 1 onwards, AZD7762 6 mg plus gemcitabine 750 mg/m^2, 3x/cycle, n=6",5 (83) n (%)
same,"Adverse events grade ≥3, patients","[1]; cycle 1 onwards, AZD7762 6 mg plus gemcitabine 1,000 mg/m^2, 2x/cycle, n=2",1 (50) n (%)
same,"Adverse events grade ≥3, patients",[1]; [14],1 (100) n (%)
same,"Grade ≥3 adverse events, term",[1]; [14],Neutropenia (n = 2)
same,"Adverse events grade ≥3, patients","[1]; cycle 1 onwards, AZD7762 9 mg plus gemcitabine 1,000 mg/m^2, n=3",1 (33) n (%)
same,"Grade ≥3 adverse events, term","[1]; cycle 1 onwards, AZD7762 9 mg plus gemcitabine 1,000 mg/m^2, n=3, n=1 per term",Thrombocytopenia
same,"Adverse events grade ≥3, patients","[1]; cycle 1 onwards, AZD7762 14 mg plus gemcitabine 1,000 mg/m^2, n=6",2 (33) n (%)
same,"Adverse events grade ≥3, patients","[1]; cycle 1 onwards, AZD7762 21 mg plus gemcitabine 1,000 mg/m^2, n=3",1 (33) n (%)
same,"Grade ≥3 adverse events, term","[1]; cycle 1 onwards, AZD7762 21 mg plus gemcitabine 1,000 mg/m^2, n=3, n=1 per term",Atrial thrombosis Febrile neutropenia
same,"Adverse events grade ≥3, patients","[1]; cycle 1 onwards, AZD7762 30 mg plus gemcitabine 1,000 mg/m^2, n=7",4 (57) n (%)
same,"Adverse events grade ≥3, patients","[1]; cycle 1 onwards, AZD7762 32 mg plus gemcitabine 1,000 mg/m^2, n=6",3 (50) n (%)
same,"Grade ≥3 adverse events, term","[1]; cycle 1 onwards, AZD7762 32 mg plus gemcitabine 1,000 mg/m^2, n=6, n=1 per term",Neutropenia Flank pain Nausea Vomiting
same,"Adverse events grade ≥3, patients","[1]; cycle 1 onwards, AZD7762 40 mg plus gemcitabine 1,000 mg/m^2, n=8",4 (50) n (%)
same,"Adverse events grade ≥3, patients","[1]; cycle 1 onwards, AZD7762 plus gemcitabine, all doses, total n=42",22 (52) n (%)
same,Serious AE possibly related to AZD7762,"[1]; AZD7762 30 mg group, also judged causally related to gemcitabine",grade 3 chest pain
same,Serious AE possibly related to AZD7762,"[1]; AZD7762 40 mg group, also recorded as a DLT",grade 3 myocardial ischemia
same,Peak plasma concentration,[2]; 30 mg dose,291 ng/mL
same,Unchanged drug excreted in the urine,"[2]; first 48 h post-dosing, across all dose levels",11–20%
same,"AZD7762 exposure (Cmax, C24 h, and AUC) versus dose",[2]; over the dose range studied,increased linearly; also recorded: increased in a dose-proportional manner

# Source: article PMC4486055 (Cancer chemotherapy and pharmacology, 2014)
